Measurements taken from patent publication US20100223737A1, “ORGANIC CATALYST WITH ENHANCED ENZYME COMPATIBLITY” (priority 2009, published 2010).

Key:
Type in all cases: biochemical
Duramyl = assay: Organic Catalyst/Enzyme Compatibility Test (alpha amylase activity assay), Duramyl; settings: (Ac/Ab)x100; [Peracetic Acid]=5.0 ppm; [organic catalyst]=0.5 ppm; 40° C.; sample at 7 minutes 45 seconds
Natalase = assay: Organic Catalyst/Enzyme Compatibility Test (alpha amylase activity assay), Natalase; settings: (Ac/Ab)x100; [Peracetic Acid]=5.0 ppm; [organic catalyst]=0.5 ppm; 40° C.; sample at 7 minutes 45 seconds
[1] = test system: Termamyl, Duramyl and Natalase; assay: Organic Catalyst/Enzyme Compatibility Test, average of the three enzymes; settings: ECV=(ECVter+ECVdur+ECVnat)/3; [Peracetic Acid]=5.0 ppm; [organic catalyst]=0.5 ppm

Row | Enzyme Compatibility Values ECVdur (Duramyl) | Enzyme Compatibility Values ECVnat (Natalase) | Enzyme Compatibility Values ECV [1] | Substance
1 | 101 | 102 | 101 | Sulfuric acid mono-[2-(3,4-dihydro-isoquinolin-2-yl)-1-(2-butyloctyloxymethyl)-ethyl]ester, internal salt [Entry 4]
2 | 101 | 99 | 99 | Sulfuric acid mono-[2-(3,4-dihydro-isoquinolin-2-yl)-1-(2-propylheptyloxymethyl)-ethyl]ester, internal salt [Entry 3]
